pIC50: −log10 of the molar value.
How the values were obtained:
[1] = molecular target: Casein kinase I isoform epsilon (Homo sapiens, UniProt P49674); experiment: Inhibition of recombinant human full-length GST-tagged CSNK1E expressed in insect cells using FRET-labeled Ser/Thr 11 peptide as substrate measured after 1 hr in presence of ATP by Z'-lyte assay
MAO-B = MAO-B (Homo sapiens, UniProt P27338); experiment: Inhibition of recombinant full-length human MAO-B expressed in insect cells at 10 uM using kynuramine as substrate after 60 mins by spectrophotometric analysis relative to control; settings: probe kynuramine
[2] = molecular target: Cholecystokinin receptor type A (Homo sapiens) (UniProt P32238); experiment: Displacement of [3H]L-364,718 from recombinant full length human recombinant CCK1 expressed in 1321-N1 cells at 10 uM measured after 60 mins by radiometric scintillation analysis relative to control; format: cell-based
[3] = Unbound clearance in dog at 0.5 mg/kg, iv or 1 mg/kg, po; format: ADME, organism-based, Canis lupus familiaris; settings: in vivo
[4] = molecular target: Serine/threonine-protein kinase Nek4 (Homo sapiens, UniProt P51957); experiment: Inhibition of recombinant full length human GST-tagged NEK4 expressed in baculovirus expression system using serine/threonine-7 peptide as substrate incubated for 60 mins in presence of ATP by Z'-LYTE assay
[5] = molecular target: Fibroblast growth factor receptor 3 (Homo sapiens, UniProt P22607); experiment: Inhibition of recombinant His-tagged human FGFR3 (399 to 806 residues) cytoplasmic domain expressed in baculovirus expression system using Tyr 04 peptide as substrate after 1 hr in presence of ATP by Z'-LYTE assay
[6] = molecular target: Muscarinic acetylcholine receptor M1 (Homo sapiens) (UniProt P11229); experiment: Displacement of [3H]N-Methylscopolamine from full length human recombinant Muscarinic M1 receptor expressed in CHOK1 cells at 10 uM measured after 120 mins by radiometric scintillation analysis relative to control; format: cell-based; settings: CHO-K1
[7] = molecular target: Melanin-concentrating hormone receptor 1 (Homo sapiens) (UniProt Q99705); experiment: Displacement of [125I]Tyr-S36057 from full length human recombinant SLC1 receptor expressed in CHO-K1 cells at 10 uM measured after 120 mins by radiometric scintillation analysis relative to control; format: cell-based
[8] = molecular target: Serine/threonine-protein kinase DCLK2 (Homo sapiens, UniProt Q8N568); experiment: Inhibition of recombinant full length human GST-tagged DCAMKL2 expressed in baculovirus expression system using serine/threonine-17 peptide as substrate incubated for 60 mins in presence of ATP by Z'-LYTE assay
[9] = molecular target: Proto-oncogene tyrosine-protein kinase receptor Ret (Homo sapiens, UniProt P07949); experiment: Inhibition of recombinant human GST-tagged RET cytoplasmic domain expressed in baculovirus expression system using tyr02 peptide as substrate incubated for 60 mins in presence of ATP by Z'-LYTE assay
[10] = molecular target: 5-hydroxytryptamine receptor 2A (Homo sapiens) (UniProt P28223); experiment: Displacement of [3H]ketanserin from full length human recombinant 5HT2A receptor expressed in CHOK-1 cells at 10 uM measured after 60 mins by radiometric scintillation analysis relative to control; format: cell-based
[11] = molecular target: Prostacyclin receptor (Homo sapiens) (UniProt P43119); experiment: Inhibition of human prostanoid IP receptor at 10 uM relative to control
[12] = molecular target: Serine/threonine-protein kinase Sgk1 (Homo sapiens, UniProt O00141); experiment: Inhibition of recombinant human GST-tagged SGK1 catalytic domain (60 to 431 residues) expressed in baculovirus expression system using serine/threonine-6 peptide as substrate incubated for 60 mins in presence of ATP by Z'-LYTE assay
[13] = molecular target: Mitogen-activated protein kinase 12 (Homo sapiens, UniProt P53778); experiment: Inhibition of recombinant full length human His-tagged p38gamma expressed in baculovirus expression system using serine/threonine-3 peptide as substrate incubated for 60 mins in presence of ATP by Z'-LYTE assay
[14] = molecular target: Phosphorylase b kinase gamma catalytic chain, liver/testis isoform (Homo sapiens, UniProt P15735); experiment: Inhibition of recombinant full length human N-terminal GST-tagged PHKG2 expressed in baculovirus expression system using serine/threonine-7 peptide as substrate incubated for 60 mins in presence of ATP by Z'-LYTE assay
[15] = molecular target: Substance-P receptor (Homo sapiens) (UniProt P25103); experiment: Displacement of [3H]substance P from recombinant full length human NK1R expressed in CHO cells at 10 uM after 90 mins by radiometric scintillation analysis relative to control; format: cell-based
[16] = molecular target: Calcitonin gene-related peptide type 1 receptor (Homo sapiens) (UniProt Q16602); experiment: Inhibition of human AM1 receptor at 10 uM relative to control
[17] = molecular target: Somatostatin receptor type 2 (Homo sapiens) (UniProt P30874); experiment: Displacement of [125I]Tyr11-Somatostatin 14 from recombinant full length human SST2 expressed in CHO-K1 cells at 10 uM after 4 hrs by radiometric scintillation analysis relative to control; format: cell-based
[18] = molecular target: Tyrosine-protein kinase Yes (Homo sapiens, UniProt P07947); experiment: Inhibition of full length recombinant GST-tagged human YES1 expressed in baculovirus expression system using tyr 02 peptide as substrate after 1 hr in presence of ATP by Z'-LYTE assay
[19] = molecular target: Megakaryocyte-associated tyrosine-protein kinase (Homo sapiens, UniProt P42679); experiment: Inhibition of recombinant full length human His-tagged MATK expressed in Escherichia coli using tyr-01 peptide as substrate incubated for 60 mins in presence of ATP by Z'-LYTE assay
MAO-A = MAO-A (Homo sapiens, UniProt P21397); experiment: Inhibition of recombinant full-length human MAO-A expressed in insect cells at 10 uM using kynuramine as substrate after 60 mins by spectrophotometric analysis relative to control; settings: probe kynuramine
[20] = molecular target: Casein kinase I isoform alpha (Homo sapiens, UniProt P48729); experiment: Inhibition of recombinant full length human GST-tagged CSNK1A1 expressed in baculovirus expression system using fluorophore-labeled serine/threonine-11 peptide as substrate incubated for 60 mins in presence of ATP by Z'-LYTE assay
[21] = molecular target: Cyclin-dependent kinase 5/CDK5 activator 1 (Homo sapiens, UniProt Q00535); experiment: Inhibition of recombinant full length human His-tagged CDK5/p35 expressed in baculovirus expression system using serine/threonine-12 peptide as substrate incubated for 60 mins in presence of ATP by Z'-LYTE assay
[22] = molecular target: Homeodomain-interacting protein kinase 2 (Homo sapiens, UniProt Q9H2X6); experiment: Inhibition of recombinant human GST-tagged HIPK2 expressed in baculovirus expression system using serine/threonine-9 peptide as substrate incubated for 60 mins in presence of ATP by Z'-LYTE assay
[23] = molecular target: Muscarinic acetylcholine receptor M4 (Homo sapiens) (UniProt P08173); experiment: Displacement of [3H]N-Methylscopolamine from full length human recombinant Muscarinic M4 receptor expressed in CHOK1 cells at 10 uM measured after 120 mins by radiometric scintillation analysis relative to control; format: cell-based; settings: CHO-K1
[24] = molecular target: Casein kinase I isoform gamma-3 (Homo sapiens, UniProt Q9Y6M4); experiment: Inhibition of recombinant human full-length GST-tagged CSNK1G3 expressed in baculovirus expression system using FRET-labeled Ser/Thr 05 peptide as substrate measured after 1 hr in presence of ATP by Z'-lyte assay

Sequence of Serine/threonine-protein kinase Sgk1 (O00141 whole entry, the tested form may be a part): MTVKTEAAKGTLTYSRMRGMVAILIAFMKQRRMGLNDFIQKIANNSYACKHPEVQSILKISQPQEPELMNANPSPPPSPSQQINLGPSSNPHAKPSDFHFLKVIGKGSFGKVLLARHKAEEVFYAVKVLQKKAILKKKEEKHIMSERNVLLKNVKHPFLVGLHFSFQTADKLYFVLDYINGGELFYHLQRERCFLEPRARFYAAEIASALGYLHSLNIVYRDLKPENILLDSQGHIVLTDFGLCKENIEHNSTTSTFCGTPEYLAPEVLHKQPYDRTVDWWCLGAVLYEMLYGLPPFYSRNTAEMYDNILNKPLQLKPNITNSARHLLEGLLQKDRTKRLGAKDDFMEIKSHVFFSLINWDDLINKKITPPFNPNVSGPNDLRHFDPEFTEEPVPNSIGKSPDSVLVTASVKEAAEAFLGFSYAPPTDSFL
Sequence of MAO-A (P21397 whole entry, canonical isoform): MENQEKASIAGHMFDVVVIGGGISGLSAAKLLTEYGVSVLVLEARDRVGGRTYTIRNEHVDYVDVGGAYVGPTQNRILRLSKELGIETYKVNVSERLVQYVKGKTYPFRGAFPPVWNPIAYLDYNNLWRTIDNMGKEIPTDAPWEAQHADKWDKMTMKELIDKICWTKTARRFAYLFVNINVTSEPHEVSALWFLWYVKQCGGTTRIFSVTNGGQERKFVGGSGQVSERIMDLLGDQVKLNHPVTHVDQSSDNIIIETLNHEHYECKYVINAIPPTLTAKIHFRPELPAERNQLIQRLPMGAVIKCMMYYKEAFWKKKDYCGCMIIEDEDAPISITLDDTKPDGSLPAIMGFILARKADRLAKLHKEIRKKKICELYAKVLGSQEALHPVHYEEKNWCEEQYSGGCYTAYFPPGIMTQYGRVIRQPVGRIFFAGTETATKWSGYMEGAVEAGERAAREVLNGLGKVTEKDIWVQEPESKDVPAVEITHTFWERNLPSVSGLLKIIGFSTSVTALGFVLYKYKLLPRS
Sequence of Casein kinase I isoform alpha (P48729 whole entry, canonical isoform): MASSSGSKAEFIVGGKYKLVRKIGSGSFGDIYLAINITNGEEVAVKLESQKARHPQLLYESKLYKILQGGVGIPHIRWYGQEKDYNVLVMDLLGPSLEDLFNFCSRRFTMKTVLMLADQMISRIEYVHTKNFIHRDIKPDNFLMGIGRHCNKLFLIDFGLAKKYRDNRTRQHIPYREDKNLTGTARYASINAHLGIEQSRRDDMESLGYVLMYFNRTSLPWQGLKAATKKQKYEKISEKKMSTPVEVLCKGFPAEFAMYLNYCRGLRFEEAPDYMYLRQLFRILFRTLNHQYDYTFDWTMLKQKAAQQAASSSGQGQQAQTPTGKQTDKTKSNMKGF
Sequence of Somatostatin receptor type 2 (Homo sapiens) (P30874 whole entry): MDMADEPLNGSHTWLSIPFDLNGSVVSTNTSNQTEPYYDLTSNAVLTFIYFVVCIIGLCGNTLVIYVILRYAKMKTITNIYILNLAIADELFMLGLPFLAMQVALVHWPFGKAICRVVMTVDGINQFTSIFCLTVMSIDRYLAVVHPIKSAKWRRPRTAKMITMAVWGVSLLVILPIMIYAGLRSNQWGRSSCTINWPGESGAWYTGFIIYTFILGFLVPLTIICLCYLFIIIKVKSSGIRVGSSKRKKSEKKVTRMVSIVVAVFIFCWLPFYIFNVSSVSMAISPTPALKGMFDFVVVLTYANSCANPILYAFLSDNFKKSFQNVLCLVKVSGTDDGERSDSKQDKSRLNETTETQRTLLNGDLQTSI
Sequence of Tyrosine-protein kinase Yes (P07947 whole entry): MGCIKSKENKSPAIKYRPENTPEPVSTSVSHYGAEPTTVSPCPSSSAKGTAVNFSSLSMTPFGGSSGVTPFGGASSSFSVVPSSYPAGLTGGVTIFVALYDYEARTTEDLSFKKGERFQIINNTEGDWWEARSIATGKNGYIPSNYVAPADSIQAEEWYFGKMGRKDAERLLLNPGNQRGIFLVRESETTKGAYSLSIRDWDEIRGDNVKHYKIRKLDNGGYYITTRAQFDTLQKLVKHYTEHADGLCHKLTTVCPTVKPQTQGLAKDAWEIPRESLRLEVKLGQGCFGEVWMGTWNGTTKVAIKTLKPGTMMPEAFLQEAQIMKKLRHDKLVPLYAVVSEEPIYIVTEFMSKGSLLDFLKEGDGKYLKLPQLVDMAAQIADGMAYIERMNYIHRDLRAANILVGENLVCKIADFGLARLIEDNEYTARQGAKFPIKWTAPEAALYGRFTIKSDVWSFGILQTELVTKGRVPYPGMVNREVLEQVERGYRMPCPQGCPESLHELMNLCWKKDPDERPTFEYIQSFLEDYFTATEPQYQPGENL
Sequence of Serine/threonine-protein kinase DCLK2 (Q8N568 whole entry, the tested form may be a part): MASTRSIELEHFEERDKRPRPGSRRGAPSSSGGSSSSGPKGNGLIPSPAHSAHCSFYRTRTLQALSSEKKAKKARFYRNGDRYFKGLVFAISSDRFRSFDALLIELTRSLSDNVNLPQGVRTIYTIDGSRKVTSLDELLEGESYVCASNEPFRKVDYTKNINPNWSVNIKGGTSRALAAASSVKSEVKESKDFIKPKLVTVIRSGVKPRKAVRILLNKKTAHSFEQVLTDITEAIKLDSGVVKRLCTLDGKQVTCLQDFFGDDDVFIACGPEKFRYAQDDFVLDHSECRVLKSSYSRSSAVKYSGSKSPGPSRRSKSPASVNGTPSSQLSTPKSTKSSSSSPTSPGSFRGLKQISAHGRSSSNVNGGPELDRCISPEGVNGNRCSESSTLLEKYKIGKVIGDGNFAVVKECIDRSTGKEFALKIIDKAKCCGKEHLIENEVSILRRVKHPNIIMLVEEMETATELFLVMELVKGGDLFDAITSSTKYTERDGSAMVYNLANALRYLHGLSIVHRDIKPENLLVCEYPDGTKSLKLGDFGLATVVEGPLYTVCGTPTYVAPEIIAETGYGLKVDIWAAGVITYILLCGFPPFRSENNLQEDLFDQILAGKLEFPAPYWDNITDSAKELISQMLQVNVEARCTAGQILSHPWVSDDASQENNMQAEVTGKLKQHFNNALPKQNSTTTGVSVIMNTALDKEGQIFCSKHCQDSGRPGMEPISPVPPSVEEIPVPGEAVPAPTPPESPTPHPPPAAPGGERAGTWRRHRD
Sequence of Muscarinic acetylcholine receptor M1 (Homo sapiens) (P11229 whole entry): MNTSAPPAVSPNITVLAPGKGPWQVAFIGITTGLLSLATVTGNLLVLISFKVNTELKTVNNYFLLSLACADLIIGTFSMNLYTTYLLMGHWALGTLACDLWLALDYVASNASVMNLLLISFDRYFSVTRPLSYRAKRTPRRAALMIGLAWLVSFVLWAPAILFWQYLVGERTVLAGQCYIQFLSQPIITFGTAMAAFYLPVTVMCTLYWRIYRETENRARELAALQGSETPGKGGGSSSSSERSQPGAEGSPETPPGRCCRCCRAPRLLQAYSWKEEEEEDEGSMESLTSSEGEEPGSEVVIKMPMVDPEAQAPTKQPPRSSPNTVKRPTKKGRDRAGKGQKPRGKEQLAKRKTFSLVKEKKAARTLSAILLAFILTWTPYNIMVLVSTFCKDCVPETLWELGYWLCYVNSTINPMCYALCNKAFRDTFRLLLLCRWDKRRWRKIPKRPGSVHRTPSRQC
Sequence of Muscarinic acetylcholine receptor M4 (Homo sapiens) (P08173 whole entry, canonical isoform): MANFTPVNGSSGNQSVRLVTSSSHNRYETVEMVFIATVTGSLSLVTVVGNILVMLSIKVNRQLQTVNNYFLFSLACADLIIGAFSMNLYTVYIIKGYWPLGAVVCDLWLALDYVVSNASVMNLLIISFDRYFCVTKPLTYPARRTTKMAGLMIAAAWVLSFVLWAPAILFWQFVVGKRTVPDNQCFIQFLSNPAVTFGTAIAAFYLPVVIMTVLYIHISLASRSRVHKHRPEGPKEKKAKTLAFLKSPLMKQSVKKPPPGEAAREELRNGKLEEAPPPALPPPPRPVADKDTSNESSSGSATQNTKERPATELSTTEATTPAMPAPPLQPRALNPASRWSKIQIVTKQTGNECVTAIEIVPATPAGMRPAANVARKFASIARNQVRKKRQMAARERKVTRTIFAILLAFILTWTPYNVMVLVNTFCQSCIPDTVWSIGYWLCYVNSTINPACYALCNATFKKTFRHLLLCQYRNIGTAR
Sequence of Calcitonin gene-related peptide type 1 receptor (Homo sapiens) (Q16602 whole entry): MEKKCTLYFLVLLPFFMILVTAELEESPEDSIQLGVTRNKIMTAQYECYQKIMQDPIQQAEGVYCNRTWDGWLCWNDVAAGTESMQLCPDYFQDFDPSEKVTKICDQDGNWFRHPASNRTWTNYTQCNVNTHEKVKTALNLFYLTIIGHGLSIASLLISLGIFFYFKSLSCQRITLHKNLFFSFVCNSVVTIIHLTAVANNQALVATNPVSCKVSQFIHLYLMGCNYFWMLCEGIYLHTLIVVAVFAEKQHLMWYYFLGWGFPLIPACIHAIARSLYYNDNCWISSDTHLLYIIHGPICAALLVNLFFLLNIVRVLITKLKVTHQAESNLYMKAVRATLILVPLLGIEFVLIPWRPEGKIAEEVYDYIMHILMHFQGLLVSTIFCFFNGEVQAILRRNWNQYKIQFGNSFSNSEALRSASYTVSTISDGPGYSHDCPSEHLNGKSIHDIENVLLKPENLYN
Sequence of Cholecystokinin receptor type A (Homo sapiens) (P32238 whole entry): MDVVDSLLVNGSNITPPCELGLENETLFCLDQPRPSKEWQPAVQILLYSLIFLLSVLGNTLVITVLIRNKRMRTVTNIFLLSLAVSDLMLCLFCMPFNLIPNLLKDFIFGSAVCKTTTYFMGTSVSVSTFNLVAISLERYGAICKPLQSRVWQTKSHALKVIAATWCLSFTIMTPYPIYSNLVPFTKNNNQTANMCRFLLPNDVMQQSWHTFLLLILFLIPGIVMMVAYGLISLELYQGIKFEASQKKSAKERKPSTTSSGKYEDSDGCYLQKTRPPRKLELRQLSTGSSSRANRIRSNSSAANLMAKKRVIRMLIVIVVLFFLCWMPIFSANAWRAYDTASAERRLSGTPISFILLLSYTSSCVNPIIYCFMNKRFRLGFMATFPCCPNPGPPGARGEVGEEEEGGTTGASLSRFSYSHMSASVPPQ

`C[C@@H]1C[C@H]1C(=O)N1CCN(c2cnc(C#N)c(-c3cnn(C)c3)n2)C[C@H]1C` showed a pIC50 [1] of under 4.00, an inhibition at 1 h, 10 µM (MAO-B) of 11% and an inhibition [2] of 3%. The CL free [3] was 37 mL/min/kg, the pIC50 [4] was under 4.00 and the pIC50 [5] was under 4.00. It also gave an inhibition [6] of -3%, an inhibition [7] of -2% and a pIC50 [8] of under 4.00. For the same compound, the pIC50 [9] was under 4.00, the inhibition [10] was 6% and the inhibition [11] was -1%. It also gave a pIC50 [12] of under 4.00, a pIC50 [13] of under 4.00 and a pIC50 [14] of under 4.00. The inhibition [15] was -1%, the inhibition [16] was 10% and the inhibition [17] was -5%. It also gave a pIC50 [18] of 4.43, a pIC50 [19] of under 4.00 and an inhibition at 1 h, 10 µM (MAO-A) of 11%. The pIC50 [20] was under 4.00, the pIC50 [21] was under 4.00 and the pIC50 [22] was under 4.00. For the same compound, the inhibition [23] was 3% and the pIC50 [24] was under 4.00.

— ChEMBL document CHEMBL4602617, “Discovery and optimization of heteroaryl piperazines as potent and selective PI3Kδ inhibitors” (Bioorg Med Chem Lett, 2020)
